Reference: US11045519B2, “Arginine-rich polypeptide compositions and methods of using same” (UNM Rainforest Innovations, priority 2017, dated 2021)

Assays:
Assay type in all cases: cell-based
HPV16 PsVs [1] = assay: Direct pre-incubation of HPV16 PsVs with peptide, dilution below IC50, then infection of HaCaT cells; settings: 0.3 μM, 1 h 37° C., diluted 1500-fold, HaCaT cells 24 h
Procedure: FIG. 3. […] HPV16 PsVs were incubated with 0.3 μM polyR for one hour at 37° C. The virus-polyR mixture was diluted with CM to reduce the polyR concentration below the IC50 value prior to incubation with HaCaT cells for 24 hours (HPV16-polyR). The control included untreated HPV16 PsVs (HPV16) added to HaCaT cells. Infection was measured after 24-hour incubation.
FIG. 15. Direct interaction of PrS to HPV16 PsVs. HPV16 PsVs were incubated with 1 μM PrS or HA:PrS complex for one hour at 37° C. Virus-PrS/or HA:PrS mixture was diluted with CM in order to reduce the PrS concentration below the IC50 value, and incubated with HaCaT cells for 24 hours. The control included untreated HPV16 PsVs. Infection was measured after 24 hours incubation as described in FIG. 12.
Typically, direct interaction of cationic inhibitors with the viral capsids of non-enveloped viruses (including HPV) is sufficient for antiviral activity. To determine whether polyR inhibited HPV16 infectivity by direct interaction with viral capsids, HPV16 PsVs were incubated with […] for one hour at 37° C. The virus-polyR mixture was diluted 1500-fold to reduce the polyR concentration below the IC50 value, then incubated with HaCaT cells. The control included cells exposed to HPV PsVs that were not treated with polyR. […]

HPV16 PsVs [2] = assay: HPV16 PsV infection of CHO mutant cells; settings: 3 μM, 1 h pre-treatment, 24 h
Procedure: FIG. 7. HPV binding and infection of CHO mutant cells in the presence of polyR. CHO mutant pgsA-745 cells (GAG deficient) and CHO mutant pgsD-677 cells (HS deficient) were grown in Ham's F12 medium supplemented with 10% fetal bovine serum and 1% Glutamax (Invitrogen, Thermo Fisher Scientific, Inc., Carlsbad, Calif.). (A) Cells were incubated with 3 μM polyR in the medium for 30 minutes before adding HPV16 PsVs and incubating at 4° C. for one hour. After extensive washing with PBS, cells were lysed and analyzed for the content of L1, as described in FIG. 4A. (B) Semi-confluent CHO-pgsA were treated with 3 μM polyR for one hour prior to adding HPV16 PsVs. Infection was scored at 24 hours post infection as described in FIG. 1. (C) Semi-confluent CHO-pgsD cells were treated with 3 μM polyR for one hour prior to adding HPV16 PsVs. Infection was scored at 24 hours post infection as described in FIG. 1.
To test the effects of polyR on cells that differentially express heparan sulfate versus heparan sulfonated proteoglycans, like glycosaminoglycans (GAGs), genetically mutant clones of Chinese hamster ovary (CHO) cell lines were used. […] First, the effect of polyR on HPV16 PsV binding to these mutant cells was measured.

authentic HPV16 virions = assay: Authentic HPV16 virion infection of HaCaT cells, RT-qPCR of spliced E1^E4 mRNA; settings: 0.5 μM, 100 vge/cell, three days post-infection
Procedure: FIG. 10. PolyR inhibits activity of authentic HPV16 virions. HaCaT cells were infected with authentic HPV16 virions (100 vge/cell) in the presence or absence of 500 nM polyR. At three days post-infection, total RNA was extracted from cells using TRIzol reagent (Invitrogen, Thermo Fisher Scientific, Inc., Carlsbad, Calif.). Equal amount of the RNA of polyR-treated and untreated cells was subjected to reverse transcription. Each RT reaction was divided into three qPCR amplifications of 45 cycles targeting the spliced transcripts of cellular β-actin or HPV16 cDNAs. Primers E7.4A and E4B target an amplimer derived from spliced E1^E4 RNA, as previously described (Patterson et al., 2005. J Virol 79:6838-6847).
To validate the effect of polyR was not simply related to pseudovirus infections, HaCaT cells were infected with authentic HPV16 virions carrying viral genomes (100 vge/cell) in the presence or absence of 0.5 μM polyR. At three days post-infection, the cells were harvested and total RNA was extracted using TRIzol reagent (Invitrogen, Thermo Fisher Scientific, Inc., Carlsbad, Calif.). Nucleic acid concentrations were determined by optical density measurements. […] Quantification of cDNA derived from the spliced viral E1^E4 mRNA via qPCR was analyzed in triplicate samples from multiple separate experimental infections.

With poly-L-arginine [polyR] the “effect of pre-incubation of HPV16 PsVs on infection” value (HPV16 PsVs [1]) was “did not inhibit infection to a statistically significant degree”, the “reduction of HPV16 infection” value (HPV16 PsVs [2]; CHO pgsA-745 cells) was 63% and the “reduction of HPV16 infection” value (HPV16 PsVs [2]; CHO pgsD-677 cells) was 92%. The “inhibition of HPV16 infection (RT-qPCR)” value (authentic HPV16 virions) was roughly 90%.
